Data taken from patent US20190374526A1, “Substituted Heterocyclic Compounds as Inhibitors of PRDM9” (Merck Sharp & Dohme Corp., priority 2018, published 2019).
Counter-ions that a name gives are not always drawn.

Target: T1, hPRDM9 (amino acids 195-385) (Homo sapiens, UniProt Q9NQV7)
T1 construct: 1.25 nM hPRDM9 (amino acids 195-385)
T1 sequence (Q9NQV7 195-385): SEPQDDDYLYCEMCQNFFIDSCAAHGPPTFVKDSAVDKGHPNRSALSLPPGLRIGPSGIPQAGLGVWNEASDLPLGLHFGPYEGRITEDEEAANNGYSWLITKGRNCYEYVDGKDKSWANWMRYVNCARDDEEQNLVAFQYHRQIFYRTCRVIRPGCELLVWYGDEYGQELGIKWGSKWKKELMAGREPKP
Test: PRDM9 biochemical assay (radiometric, 3[H] methyl transfer from SAM to biotinylated histone H3 peptide)
Conditions: 1 nM hPRDM9, 1 μM biotinylated H3(1-25)K4 peptide, 5 μM 3[H]-SAM, 55 μM un-labeled SAM, 25° C., 30 minutes
Outline: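 Radiometric assay of ³H-methyl transfer to biotinylated H3(1-25)K4 peptide, with final concentrations 1 nM hPRDM9 (195-385), 1 μM peptide, 5 μM ³H-SAM and 55 μM unlabeled SAM. Run in pH 8.5 Tris buffer for 30 min at 25° C, quenched with guanidine-HCl and captured on streptavidin Flashplates. IC50 from four-parameter fit relative to 0.5% DMSO controls.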

Structure (SMILES): Cc1cc(N2CC3(CCCN(C(=O)Nc4cc(Cl)cc(Cl)c4)C3)C2)ccn1 [Compound 240]
- IC50: ≥ 50000 nM

Structure (SMILES): CCN1CCN(c2nc(-c3cc(OC)cc(OC)c3)no2)CC12CCN(c1ccnc(C)c1)CC2 [Compound 242, 3-(3,5-dimethoxyphenyl)-5-(1-ethyl-9-(2-methylpyridin-4-yl)-1,4,9-triazaspiro[5.5]undecan-4-yl)-1,2,4-oxadiazole]
- IC50: 155 nM

Structure (SMILES): COc1cc(CN)cc(-c2noc(N3CCN(C)C4(CCN(c5ccnc(C)c5)CC4)C3)n2)c1 [Compound 243, (3-methoxy-5-(5-(1-methyl-9-(2-methylpyridin-4-yl)-1,4,9-triazaspiro[5.5]undecan-4-yl)-1,2,4-oxadiazol-3-yl)phenyl)methanamine]
- IC50: 103 nM

Structure (SMILES): COc1cc(CN(C)C)cc(-c2noc(N3CCN(C)C4(CCN(c5ccnc(C)c5)CC4)C3)n2)c1 [Compound 244, 1-(3-methoxy-5-(5-(1-methyl-9-(2-methylpyridin-4-yl)-1,4,9-triazaspiro[5.5]undecan-4-yl)-1,2,4-oxadiazol-3-yl)phenyl)-N,N-dimethylmethanamine]
- IC50: 131 nM

Structure (SMILES): CNCc1cc(OC)cc(-c2noc(N3CCN(C)C4(CCN(c5ccnc(C)c5)CC4)C3)n2)c1 [Compound 245, 1-(3-methoxy-5-(5-(1-methyl-9-(2-methylpyridin-4-yl)-1,4,9-triazaspiro[5.5]undecan-4-yl)-1,2,4-oxadiazol-3-yl)phenyl)-N-methylmethanamine, HCl]
- IC50: 83 nM

Structure (SMILES): COc1cc(C(N)=O)cc(-c2noc(N3CCN(C)C4(CCN(c5ccnc(C)c5)CC4)C3)n2)c1 [Compound 246, 3-methoxy-5-(5-(1-methyl-9-(2-methylpyridin-4-yl)-1,4,9-triazaspiro[5.5]undecan-4-yl)-1,2,4-oxadiazol-3-yl)benzamide]
- IC50: 83 nM

Structure (SMILES): COc1cc(OC)cc(-c2noc(NCC3(O)CN(c4ccnc(C)c4)C3)n2)c1 [Compound 247, 3-(((3-(3,5-dimethoxyphenyl)-1,2,4-oxadiazol-5-yl)amino)methyl)-1-(2-methylpyridin-4-yl)azetidin-3-ol]
- IC50: 650 nM
